From publication PMC4979471 (Cell Death Discovery, 2015) come the findings set out here.

Holding throughout (assay): Kinase selectivity, P33-radiolabeled assay
Common to all, as to assay type: biochemical
Holding throughout (details): 10 μM ATP

The target in one test is T1, CHK1 (Homo sapiens, UniProt O14757).
T1 construct: purchased Reaction Biology Corp
T1 sequence (O14757 1-476): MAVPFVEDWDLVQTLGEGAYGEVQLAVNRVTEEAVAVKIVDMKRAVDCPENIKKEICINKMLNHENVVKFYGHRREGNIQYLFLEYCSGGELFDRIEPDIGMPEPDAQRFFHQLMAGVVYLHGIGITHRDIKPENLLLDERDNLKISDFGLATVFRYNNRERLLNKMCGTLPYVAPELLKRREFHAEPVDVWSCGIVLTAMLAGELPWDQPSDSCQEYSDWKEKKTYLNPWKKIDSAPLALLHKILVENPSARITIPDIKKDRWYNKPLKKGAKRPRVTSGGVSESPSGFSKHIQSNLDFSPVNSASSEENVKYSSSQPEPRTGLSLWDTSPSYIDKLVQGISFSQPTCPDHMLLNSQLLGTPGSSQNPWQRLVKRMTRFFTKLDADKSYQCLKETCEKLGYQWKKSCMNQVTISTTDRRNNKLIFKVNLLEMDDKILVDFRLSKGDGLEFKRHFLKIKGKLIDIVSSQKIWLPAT
An outline of the steps: (§1)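 ATP at 10 μM; test article at 10 μM, single point, two replicates. Output is activity as % of DMSO.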

Another test has as its target T2, FLT3 (Homo sapiens, UniProt P36888).
T2 construct: purchased Reaction Biology Corp
T2 sequence (P36888 27-993): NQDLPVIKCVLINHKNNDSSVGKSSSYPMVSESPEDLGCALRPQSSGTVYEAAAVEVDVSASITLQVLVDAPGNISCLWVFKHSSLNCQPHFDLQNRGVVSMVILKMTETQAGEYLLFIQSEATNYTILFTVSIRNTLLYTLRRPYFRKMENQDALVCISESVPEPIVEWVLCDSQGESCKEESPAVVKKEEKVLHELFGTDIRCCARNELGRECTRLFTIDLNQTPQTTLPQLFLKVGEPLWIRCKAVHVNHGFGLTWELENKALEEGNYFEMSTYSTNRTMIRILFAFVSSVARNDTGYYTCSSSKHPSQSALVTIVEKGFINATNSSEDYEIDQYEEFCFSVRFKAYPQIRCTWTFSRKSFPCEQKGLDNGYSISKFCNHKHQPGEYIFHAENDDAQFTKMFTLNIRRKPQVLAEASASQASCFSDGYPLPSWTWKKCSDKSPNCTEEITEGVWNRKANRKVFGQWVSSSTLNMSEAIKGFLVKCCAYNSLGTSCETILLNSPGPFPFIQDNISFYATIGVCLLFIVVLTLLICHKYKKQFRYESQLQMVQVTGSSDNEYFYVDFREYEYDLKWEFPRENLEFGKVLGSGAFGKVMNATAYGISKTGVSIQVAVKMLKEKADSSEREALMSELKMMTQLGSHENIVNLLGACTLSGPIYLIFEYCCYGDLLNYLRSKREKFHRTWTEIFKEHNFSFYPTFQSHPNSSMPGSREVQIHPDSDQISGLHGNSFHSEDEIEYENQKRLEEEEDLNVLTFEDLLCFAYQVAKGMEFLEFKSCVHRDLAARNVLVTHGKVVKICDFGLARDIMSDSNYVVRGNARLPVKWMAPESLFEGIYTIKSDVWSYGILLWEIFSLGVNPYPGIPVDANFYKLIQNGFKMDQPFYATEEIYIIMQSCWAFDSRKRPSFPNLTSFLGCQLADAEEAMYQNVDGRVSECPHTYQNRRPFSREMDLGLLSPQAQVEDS
The essentials: as §1

The target of another test is T3, ZAP70 (Homo sapiens, UniProt P43403).
T3 construct: purchased Reaction Biology Corp
T3 sequence (P43403 1-619): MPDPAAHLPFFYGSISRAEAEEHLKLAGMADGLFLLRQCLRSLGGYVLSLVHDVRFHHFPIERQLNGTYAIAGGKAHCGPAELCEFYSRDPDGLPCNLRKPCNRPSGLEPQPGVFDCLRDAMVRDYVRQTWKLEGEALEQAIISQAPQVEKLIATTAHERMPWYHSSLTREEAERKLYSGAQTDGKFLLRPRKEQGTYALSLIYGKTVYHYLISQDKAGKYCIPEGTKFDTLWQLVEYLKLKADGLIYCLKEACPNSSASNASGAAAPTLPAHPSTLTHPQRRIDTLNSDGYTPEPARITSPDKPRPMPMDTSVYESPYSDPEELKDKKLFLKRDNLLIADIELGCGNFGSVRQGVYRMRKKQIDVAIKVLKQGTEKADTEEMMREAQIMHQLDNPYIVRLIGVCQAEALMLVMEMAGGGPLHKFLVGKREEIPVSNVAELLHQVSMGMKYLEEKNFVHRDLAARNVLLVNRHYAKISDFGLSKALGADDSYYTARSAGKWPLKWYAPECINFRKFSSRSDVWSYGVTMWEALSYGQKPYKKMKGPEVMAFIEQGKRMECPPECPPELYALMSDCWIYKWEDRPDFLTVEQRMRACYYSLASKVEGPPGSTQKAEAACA
The essentials:
as §1

The next test deals with T4, NEK3 (Homo sapiens, UniProt P51956).
T4 construct: purchased Reaction Biology Corp
T4 sequence (P51956 1-506): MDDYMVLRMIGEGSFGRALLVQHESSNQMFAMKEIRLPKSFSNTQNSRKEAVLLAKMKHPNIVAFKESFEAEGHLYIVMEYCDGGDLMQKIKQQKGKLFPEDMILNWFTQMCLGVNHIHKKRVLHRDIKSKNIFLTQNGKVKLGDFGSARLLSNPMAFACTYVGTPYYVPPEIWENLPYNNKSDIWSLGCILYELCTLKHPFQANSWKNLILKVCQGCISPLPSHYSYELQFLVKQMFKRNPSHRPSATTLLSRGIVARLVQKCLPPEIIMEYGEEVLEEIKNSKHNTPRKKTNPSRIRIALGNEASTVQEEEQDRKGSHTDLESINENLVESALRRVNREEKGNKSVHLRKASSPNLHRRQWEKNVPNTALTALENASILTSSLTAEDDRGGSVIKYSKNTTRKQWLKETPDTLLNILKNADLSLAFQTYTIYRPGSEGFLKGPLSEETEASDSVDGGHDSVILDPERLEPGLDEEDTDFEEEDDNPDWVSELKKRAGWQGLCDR
The essentials:
as §1

A further test addresses T5, PYK2 (Homo sapiens, UniProt Q14289).
T5 construct: purchased Reaction Biology Corp
An outline of the steps: as §1

The target of another test is T6, PKCb2 (Homo sapiens, UniProt P05771).
T6 construct: purchased Reaction Biology Corp
T6 sequence (P05771 1-673 isoform P05771-2): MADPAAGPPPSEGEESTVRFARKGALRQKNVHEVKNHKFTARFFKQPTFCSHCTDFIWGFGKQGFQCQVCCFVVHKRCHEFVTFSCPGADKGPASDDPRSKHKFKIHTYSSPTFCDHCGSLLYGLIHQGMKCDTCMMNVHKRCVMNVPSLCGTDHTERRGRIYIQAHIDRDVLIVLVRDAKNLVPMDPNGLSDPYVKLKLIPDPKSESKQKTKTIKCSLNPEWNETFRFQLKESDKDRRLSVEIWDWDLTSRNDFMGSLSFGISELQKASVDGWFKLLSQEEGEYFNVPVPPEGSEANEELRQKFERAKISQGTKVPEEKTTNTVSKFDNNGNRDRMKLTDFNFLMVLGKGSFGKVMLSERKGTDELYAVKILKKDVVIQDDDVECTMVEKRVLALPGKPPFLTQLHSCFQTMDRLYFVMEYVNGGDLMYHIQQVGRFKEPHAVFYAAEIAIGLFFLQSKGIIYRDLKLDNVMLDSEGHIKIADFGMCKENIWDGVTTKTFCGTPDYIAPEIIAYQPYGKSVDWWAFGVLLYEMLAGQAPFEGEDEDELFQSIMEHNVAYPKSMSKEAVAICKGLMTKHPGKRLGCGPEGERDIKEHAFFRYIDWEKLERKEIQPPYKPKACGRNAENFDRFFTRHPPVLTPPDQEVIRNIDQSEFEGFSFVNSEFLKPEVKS
An outline of the steps: as §1

The mark [1] stands for this setting: read-out: % Enzyme Activity (relative to DMSO controls) AVG.
Setting [2] is: read-out: % Enzyme Activity (relative to DMSO controls) Data 1.
Where [3] appears, read: read-out: % Enzyme Activity (relative to DMSO controls) Data 2.

Where two headings read alike, the source gives them in different places.

T5 sequence (Q14289 whole entry): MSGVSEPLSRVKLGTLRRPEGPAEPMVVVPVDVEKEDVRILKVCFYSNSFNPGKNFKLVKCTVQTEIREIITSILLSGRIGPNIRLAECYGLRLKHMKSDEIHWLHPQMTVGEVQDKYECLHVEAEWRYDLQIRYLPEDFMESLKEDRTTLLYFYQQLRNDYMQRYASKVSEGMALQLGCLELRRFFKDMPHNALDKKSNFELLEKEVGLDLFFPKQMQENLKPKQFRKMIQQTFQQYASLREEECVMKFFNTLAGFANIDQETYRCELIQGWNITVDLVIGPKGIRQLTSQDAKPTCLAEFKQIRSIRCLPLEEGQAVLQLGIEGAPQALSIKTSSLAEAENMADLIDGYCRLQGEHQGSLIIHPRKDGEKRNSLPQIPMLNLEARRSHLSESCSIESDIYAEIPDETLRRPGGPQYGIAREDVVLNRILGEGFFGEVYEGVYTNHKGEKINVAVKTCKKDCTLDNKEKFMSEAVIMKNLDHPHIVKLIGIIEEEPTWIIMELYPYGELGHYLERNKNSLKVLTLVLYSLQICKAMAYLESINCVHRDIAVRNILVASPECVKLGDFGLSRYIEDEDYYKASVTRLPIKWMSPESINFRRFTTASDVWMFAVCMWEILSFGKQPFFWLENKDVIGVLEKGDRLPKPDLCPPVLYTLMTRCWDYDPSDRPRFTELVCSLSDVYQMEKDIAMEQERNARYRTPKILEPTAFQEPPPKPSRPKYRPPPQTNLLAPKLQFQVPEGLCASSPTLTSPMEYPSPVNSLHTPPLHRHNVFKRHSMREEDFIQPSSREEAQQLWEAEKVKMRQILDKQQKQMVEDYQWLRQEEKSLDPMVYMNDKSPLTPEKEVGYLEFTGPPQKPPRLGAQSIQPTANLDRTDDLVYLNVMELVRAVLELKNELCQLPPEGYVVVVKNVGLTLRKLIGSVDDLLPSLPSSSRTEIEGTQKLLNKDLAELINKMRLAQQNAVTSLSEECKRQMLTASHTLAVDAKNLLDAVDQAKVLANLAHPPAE

`CC(C)(C)C(=O)N1N=CC[C@H]1c1ccccc1` [GSK′963]: the remaining activity at 10 µM on CHK1 (setting [1]) turned out to be 115%; on CHK1 (setting [2]), 122%; at CHK1 (setting [3]) it was 109%; on FLT3 (setting [1]), 101%; at FLT3 (setting [2]) it was 98.7%; at FLT3 (setting [3]), 103%. For the same compound, the remaining activity at 10 µM was determined as 111% at ZAP70 (setting [1]); 111% on ZAP70 (setting [2]); 111% at ZAP70 (setting [3]); 93.5% at NEK3 (setting [1]); 93.2% at NEK3 (setting [2]); 93.8% at NEK3 (setting [3]). Also, the remaining activity at 10 µM at PYK2 (setting [1]) was determined as 103%; on PYK2 (setting [2]), 103%; at PYK2 (setting [3]), 103%; on PKCb2 (setting [1]) it was 105%; on PKCb2 (setting [2]), 105%; at PKCb2 (setting [3]), 106%.
